ChEMBL document CHEMBL5131502, “Improving the treatment of Parkinson's disease: Structure-based development of novel 5-HT2A receptor antagonists/inverse agonists” (Eur J Med Chem, 2022)
Converted amounts (≈) assume the structure as drawn.

Tests used:
[1] = Tmax in Sprague-Dawley rat at 2 mg/kg, IG administered as single dose measured upto 24 hrs by LC-MS/MS analysis; assay type: ADME, organism-based; details: in vivo, po
[2] = MRTlast in Sprague-Dawley rat at 2 mg/kg, IG administered as single dose measured upto 24 hrs by LC-MS/MS analysis; assay type: ADME, organism-based; details: in vivo, po
[3] = Tmax in Sprague-Dawley rat at 4 mg/kg, IG administered as single dose measured upto 24 hrs by LC-MS/MS analysis; assay type: ADME, organism-based; details: in vivo, po
[4] = Cmax in Sprague-Dawley rat at 4 mg/kg, IG administered as single dose measured upto 24 hrs by LC-MS/MS analysis; assay type: ADME, organism-based; set-up: dose 4 mg/kg, time < 24 hrs, route ig; details: in vivo, po
[5] = Cmax in Sprague-Dawley rat at 2 mg/kg, IG administered as single dose measured upto 24 hrs by LC-MS/MS analysis; assay type: ADME, organism-based; set-up: dose 2 mg/kg, time < 24 hrs, route ig; details: in vivo, po
[6] = Half life in Sprague-Dawley rat at 2 mg/kg, IG administered as single dose measured upto 24 hrs by LC-MS/MS analysis; assay type: ADME, organism-based; details: in vivo, po
[7] = AUClast in Sprague-Dawley rat at 4 mg/kg, IG administered as single dose measured upto 24 hrs by LC-MS/MS analysis; assay type: ADME, organism-based; set-up: dose 4 mg/kg, time < 24 hrs, route ig; details: in vivo, po
[8] = MRTlast in Sprague-Dawley rat at 4 mg/kg, IG administered as single dose measured upto 24 hrs by LC-MS/MS analysis; assay type: ADME, organism-based; details: in vivo, po
[9] = Half life in Sprague-Dawley rat at 4 mg/kg, IG administered as single dose measured upto 24 hrs by LC-MS/MS analysis; assay type: ADME, organism-based; details: in vivo, po
[10] = AUClast in Sprague-Dawley rat at 2 mg/kg, IG administered as single dose measured upto 24 hrs by LC-MS/MS analysis; assay type: ADME, organism-based; set-up: dose 2 mg/kg, time < 24 hrs, route ig; details: in vivo, po
[11] = biological target: 5-hydroxytryptamine receptor 2B (Homo sapiens, UniProt P41595); assay: Displacement of [3H]-LSD from human 5-HT2B receptor at 25 uM incubated for 1 hr by microbeta2 beta-counter analysis
[12] = Dissociation constant, pKa of the compound; assay type: physicochemical
[13] = Metabolic stability in Sprague-Dawley rat liver microsomes assessed as half life at 100 uM preincubated for 10 mins followed by NADPH addition by LC/MS analysis; assay type: ADME, Microsome
[14] = Genotoxicity in Salmonella typhimurium TA100 in presence of rat liver S9 fraction by Ames test; assay type: toxicity, subcellular; details: salmonella enterica subsp. enterica serovar typhimurium
[15] = biological target: T1, 5-hydroxytryptamine receptor 2C (Homo sapiens, UniProt P28335); assay: Displacement of [3H]- Mesulergine from human 5-HT2C receptor at 300 nM incubated for 1 hr by microbeta2 beta-counter analysis
T1 sequence (P28335 whole entry): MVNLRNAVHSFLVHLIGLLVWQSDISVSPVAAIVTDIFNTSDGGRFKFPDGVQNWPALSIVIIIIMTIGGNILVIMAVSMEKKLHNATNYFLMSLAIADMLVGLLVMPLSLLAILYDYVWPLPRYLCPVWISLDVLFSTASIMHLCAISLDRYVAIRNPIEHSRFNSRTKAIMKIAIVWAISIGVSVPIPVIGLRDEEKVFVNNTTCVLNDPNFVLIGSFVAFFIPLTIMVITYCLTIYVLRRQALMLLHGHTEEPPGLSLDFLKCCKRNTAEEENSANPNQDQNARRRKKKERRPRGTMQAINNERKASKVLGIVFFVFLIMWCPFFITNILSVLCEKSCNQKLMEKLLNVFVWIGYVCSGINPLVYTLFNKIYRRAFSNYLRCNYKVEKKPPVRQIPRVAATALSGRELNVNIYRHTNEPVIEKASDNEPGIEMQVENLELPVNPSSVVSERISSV

[16] = Metabolic stability in Sprague-Dawley rat liver microsomes assessed as intrinsic clearance at 100 uM preincubated for 10 mins followed by NADPH addition by LC/MS analysis; assay type: ADME, Microsome; details: read-out: CLH
[17] = Plasma protein binding in human at 10 uM; assay type: ADME, cell-free; details: read-out: PPB (converted)
[18] = Genotoxicity in Salmonella typhimurium TA1535 in absence of rat liver S9 fraction by Ames test; assay type: toxicity; details: salmonella enterica subsp. enterica serovar typhimurium
Cytochrome P450 2C9 = Cytochrome P450 2C9 (Homo sapiens, UniProt P11712); assay: Inhibition of CYP2C9 (unknown origin); assay type: ADME
[19] = Genotoxicity in Salmonella typhimurium TA102 in absence of rat liver S9 fraction by Ames test; assay type: toxicity; details: salmonella enterica subsp. enterica serovar typhimurium
[20] = Toxicity in Sprague-Dawley rat assessed as animal death at 20 to 60 mg/kg, po administered daily via gavage measured for 7 days; assay type: organism-based; details: in vivo, 168 h, dose 20-60 mg/kg, time 7 day
[21] = Plasma protein binding in monkey at 10 uM; assay type: ADME, cell-free, Macaca mulatta; details: rhesus monkey, read-out: PPB (converted)
[22] = Genotoxicity in Salmonella typhimurium TA97 in absence of rat liver S9 fraction by Ames test; assay type: toxicity; details: salmonella enterica subsp. enterica serovar typhimurium
Cytochrome P450 3A4 = Cytochrome P450 3A4 (Homo sapiens, UniProt P08684); assay: Inhibition of CYP3A4 (unknown origin); assay type: ADME
[23] = Genotoxicity in Salmonella typhimurium TA1535 in presence of rat liver S9 fraction by Ames test; assay type: toxicity, subcellular; details: salmonella enterica subsp. enterica serovar typhimurium
[24] = Genotoxicity in Salmonella typhimurium TA98 in absence of rat liver S9 fraction by Ames test; assay type: toxicity; details: salmonella enterica subsp. enterica serovar typhimurium
[25] = Genotoxicity in Salmonella typhimurium TA97 in presence of rat liver S9 fraction by Ames test; assay type: toxicity, subcellular; details: salmonella enterica subsp. enterica serovar typhimurium
[26] = Metabolic stability in human liver microsomes assessed as intrinsic clearance at 100 uM preincubated for 10 mins followed by NADPH addition by LC/MS analysis; assay type: ADME, Microsome; details: read-out: CLH
[27] = Plasma protein binding in rat at 10 uM; assay type: ADME, cell-free; details: read-out: PPB (converted)
[28] = biological target: T2, 5-hydroxytryptamine receptor 2A (Homo sapiens, UniProt P28223); assay: Displacement of [3H]-Ketanserin from human 5-HT2A receptor at 50 nM incubated for 1 hr by microbeta scintillation counter analysis
[29] = Drug distribution in Sprague-Dawley rat brain at 6 micromol/kg administered via gavage measured after 2 hrs by LC-MS/MS analysis; assay type: ADME, tissue-based; details: in vivo, po, dose 6 µmol/kg
[30] = Toxicity in Sprague-Dawley rat assessed as apparent adverse effect at 20 to 60 mg/kg, po administered daily via gavage measured for 7 days; assay type: organism-based; details: in vivo, 168 h, dose 20-60 mg/kg, time 7 day
Cytochrome P450 1A2 = biological target: T3, Cytochrome P450 1A2 (Homo sapiens, UniProt P05177); assay: Inhibition of CYP1A2 (unknown origin); assay type: ADME
T3 sequence (P05177 whole entry): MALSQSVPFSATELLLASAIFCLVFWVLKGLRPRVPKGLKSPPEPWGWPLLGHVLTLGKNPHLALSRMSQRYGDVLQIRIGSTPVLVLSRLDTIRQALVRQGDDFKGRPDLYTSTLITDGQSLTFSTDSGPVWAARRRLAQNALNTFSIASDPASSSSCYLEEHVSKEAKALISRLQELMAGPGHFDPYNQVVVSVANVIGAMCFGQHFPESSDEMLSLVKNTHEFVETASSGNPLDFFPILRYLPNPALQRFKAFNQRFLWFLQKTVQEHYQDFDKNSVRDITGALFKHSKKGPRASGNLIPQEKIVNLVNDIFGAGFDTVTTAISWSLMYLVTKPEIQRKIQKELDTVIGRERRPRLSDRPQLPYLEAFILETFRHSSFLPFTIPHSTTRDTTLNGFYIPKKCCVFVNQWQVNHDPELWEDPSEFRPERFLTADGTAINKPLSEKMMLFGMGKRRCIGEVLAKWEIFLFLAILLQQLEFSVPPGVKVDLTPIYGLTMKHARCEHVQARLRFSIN

[31] = biological target: T2, 5-hydroxytryptamine receptor 2A; assay: Inverse agonist activity at 5-HT2A receptor (unknown origin) expressed in mouse NIH3T3 cells using o-nitrophenyl-D-galacto pyranoside incubated for 120 hrs; assay type: functional, cell-based
[32] = biological target: Voltage-gated inwardly rectifying potassium channel KCNH2 (Homo sapiens, UniProt Q12809); assay: Inhibition of hERG potassium channel expressed in CHO cells at -80 mV holding potential by whole cell patch clamp assay; assay type: toxicity, cell-based
[33] = Metabolic stability in human liver microsomes assessed as half life at 100 uM preincubated for 10 mins followed by NADPH addition by LC/MS analysis; assay type: ADME, Microsome
[34] = Metabolic stability in dog liver microsomes assessed as compound remaining at 100 uM […] followed by NADPH addition by LC/MS analysis; assay type: ADME, Canis lupus familiaris, Microsome; details: read-out: Stability
[35] = Genotoxicity in Salmonella typhimurium TA98 in presence of rat liver S9 fraction by Ames test; assay type: toxicity, subcellular; details: salmonella enterica subsp. enterica serovar typhimurium
Cytochrome P450 2C19 = Cytochrome P450 2C19 (Homo sapiens, UniProt P33261); assay: Inhibition of CYP2C19 (unknown origin); assay type: ADME
[36] = Metabolic stability in human liver microsomes assessed as compound remaining at 100 uM […] followed by NADPH addition by LC/MS analysis; assay type: ADME, Microsome; details: read-out: Stability
[37] = Drug distribution in Sprague-Dawley rat brain at 6 micromol/kg administered via gavage measured after 6 hrs by LC-MS/MS analysis; assay type: ADME, tissue-based; details: in vivo, po, dose 6 µmol/kg
[38] = Drug distribution in Sprague-Dawley rat brain at 6 micromol/kg administered via gavage measured after 0.5 hr by LC-MS/MS analysis; assay type: ADME, tissue-based; details: in vivo, po, dose 6 µmol/kg
Cytochrome P450 2D6 = Cytochrome P450 2D6 (Homo sapiens, UniProt P10635); assay: Inhibition of CYP2D6 (unknown origin); assay type: ADME
[39] = Genotoxicity in Salmonella typhimurium TA100 in absence of rat liver S9 fraction by Ames test; assay type: toxicity; details: salmonella enterica subsp. enterica serovar typhimurium
[40] = Metabolic stability in Sprague-Dawley rat liver microsomes assessed as compound remaining at 100 uM […] followed by NADPH addition by LC/MS analysis; assay type: ADME, Microsome; details: read-out: Stability
[41] = Lipophilicity, logD of the compound at pH 7.4; assay type: physicochemical; details: buffer
[42] = Aqueous solubility of compound at pH 7.4; assay type: physicochemical
[43] = Genotoxicity in Salmonella typhimurium TA102 in presence of rat liver S9 fraction by Ames test; assay type: toxicity, subcellular; details: salmonella enterica subsp. enterica serovar typhimurium

T2 sequence (P28223 whole entry): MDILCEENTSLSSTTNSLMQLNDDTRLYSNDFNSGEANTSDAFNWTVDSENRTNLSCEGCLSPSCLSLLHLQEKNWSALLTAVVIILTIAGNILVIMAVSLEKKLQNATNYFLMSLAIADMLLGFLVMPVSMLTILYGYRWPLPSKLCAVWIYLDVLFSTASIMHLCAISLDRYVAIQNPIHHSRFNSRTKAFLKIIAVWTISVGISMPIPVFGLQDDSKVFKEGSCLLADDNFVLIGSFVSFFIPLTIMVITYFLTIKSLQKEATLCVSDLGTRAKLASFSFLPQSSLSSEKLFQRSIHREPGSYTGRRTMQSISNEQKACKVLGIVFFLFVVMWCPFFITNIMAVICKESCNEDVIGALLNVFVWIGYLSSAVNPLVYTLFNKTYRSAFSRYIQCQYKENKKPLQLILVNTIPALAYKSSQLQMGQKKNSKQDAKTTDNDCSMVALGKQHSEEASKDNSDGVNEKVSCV
Cytochrome P450 2C9, sequence (P11712 whole entry): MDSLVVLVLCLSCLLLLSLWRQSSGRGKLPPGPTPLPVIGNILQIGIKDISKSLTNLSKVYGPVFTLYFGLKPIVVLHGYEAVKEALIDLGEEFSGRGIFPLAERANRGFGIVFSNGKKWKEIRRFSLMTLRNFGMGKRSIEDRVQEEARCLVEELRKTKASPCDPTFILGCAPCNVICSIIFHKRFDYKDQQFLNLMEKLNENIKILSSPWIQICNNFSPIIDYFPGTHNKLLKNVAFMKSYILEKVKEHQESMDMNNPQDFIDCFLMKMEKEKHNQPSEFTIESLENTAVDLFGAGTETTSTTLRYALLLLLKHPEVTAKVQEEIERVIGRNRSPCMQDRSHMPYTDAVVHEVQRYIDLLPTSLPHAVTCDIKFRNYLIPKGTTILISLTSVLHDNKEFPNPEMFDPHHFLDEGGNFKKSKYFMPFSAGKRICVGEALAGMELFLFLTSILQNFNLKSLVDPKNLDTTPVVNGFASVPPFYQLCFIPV
Cytochrome P450 3A4, sequence (P08684 whole entry): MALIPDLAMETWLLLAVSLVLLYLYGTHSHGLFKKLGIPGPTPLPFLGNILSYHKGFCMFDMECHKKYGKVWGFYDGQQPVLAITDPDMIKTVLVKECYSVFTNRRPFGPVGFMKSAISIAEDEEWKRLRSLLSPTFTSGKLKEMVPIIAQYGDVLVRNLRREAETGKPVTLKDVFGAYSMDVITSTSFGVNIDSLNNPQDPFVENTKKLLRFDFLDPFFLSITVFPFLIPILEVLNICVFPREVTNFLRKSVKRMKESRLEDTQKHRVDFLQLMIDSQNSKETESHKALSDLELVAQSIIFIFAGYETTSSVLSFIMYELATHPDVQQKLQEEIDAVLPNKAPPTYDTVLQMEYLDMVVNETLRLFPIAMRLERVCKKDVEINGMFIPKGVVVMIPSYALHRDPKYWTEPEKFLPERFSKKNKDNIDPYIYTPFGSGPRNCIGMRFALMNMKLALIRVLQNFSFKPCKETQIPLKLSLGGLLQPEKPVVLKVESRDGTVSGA
5-hydroxytryptamine receptor 2B, sequence (P41595 whole entry): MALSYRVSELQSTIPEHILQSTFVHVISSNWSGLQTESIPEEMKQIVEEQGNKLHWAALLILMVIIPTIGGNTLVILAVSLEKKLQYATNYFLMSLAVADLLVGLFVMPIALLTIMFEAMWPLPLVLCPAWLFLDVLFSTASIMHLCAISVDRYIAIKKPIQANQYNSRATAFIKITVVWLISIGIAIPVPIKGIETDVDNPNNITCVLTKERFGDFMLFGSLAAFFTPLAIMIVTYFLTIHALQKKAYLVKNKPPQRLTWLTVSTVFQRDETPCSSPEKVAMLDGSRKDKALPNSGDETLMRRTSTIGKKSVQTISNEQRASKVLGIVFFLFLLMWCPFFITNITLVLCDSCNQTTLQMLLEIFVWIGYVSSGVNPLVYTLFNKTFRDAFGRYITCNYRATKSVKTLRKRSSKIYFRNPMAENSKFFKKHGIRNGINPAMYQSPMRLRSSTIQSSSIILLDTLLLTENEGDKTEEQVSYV
Cytochrome P450 2C19, sequence (P33261 whole entry): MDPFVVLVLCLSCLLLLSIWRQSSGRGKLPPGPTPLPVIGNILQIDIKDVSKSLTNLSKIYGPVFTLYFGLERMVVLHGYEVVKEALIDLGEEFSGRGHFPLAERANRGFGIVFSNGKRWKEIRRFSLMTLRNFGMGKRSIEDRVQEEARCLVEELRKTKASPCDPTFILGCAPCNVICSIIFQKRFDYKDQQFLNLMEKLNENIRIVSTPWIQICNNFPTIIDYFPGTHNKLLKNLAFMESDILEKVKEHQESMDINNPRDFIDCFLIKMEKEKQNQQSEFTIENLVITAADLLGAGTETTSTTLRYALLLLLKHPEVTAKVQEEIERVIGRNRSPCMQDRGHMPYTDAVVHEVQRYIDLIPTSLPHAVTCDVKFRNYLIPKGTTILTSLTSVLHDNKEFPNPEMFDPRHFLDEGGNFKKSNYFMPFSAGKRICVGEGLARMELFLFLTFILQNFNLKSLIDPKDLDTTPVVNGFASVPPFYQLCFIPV
Cytochrome P450 2D6, sequence (P10635 whole entry): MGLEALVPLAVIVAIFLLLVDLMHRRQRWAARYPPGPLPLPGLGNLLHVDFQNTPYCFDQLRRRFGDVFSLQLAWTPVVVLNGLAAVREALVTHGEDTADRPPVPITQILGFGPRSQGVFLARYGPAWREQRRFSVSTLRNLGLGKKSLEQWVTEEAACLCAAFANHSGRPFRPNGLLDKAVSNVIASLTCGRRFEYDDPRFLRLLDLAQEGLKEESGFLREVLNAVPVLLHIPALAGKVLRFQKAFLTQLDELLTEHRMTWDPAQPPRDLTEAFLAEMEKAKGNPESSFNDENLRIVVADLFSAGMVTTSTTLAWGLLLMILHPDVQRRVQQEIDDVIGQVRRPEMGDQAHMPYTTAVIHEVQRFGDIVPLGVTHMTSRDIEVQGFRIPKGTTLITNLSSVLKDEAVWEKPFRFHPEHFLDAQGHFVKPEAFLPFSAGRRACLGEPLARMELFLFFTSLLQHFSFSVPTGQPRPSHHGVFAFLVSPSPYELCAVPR
Voltage-gated inwardly rectifying potassium channel KCNH2, sequence (Q12809 whole entry): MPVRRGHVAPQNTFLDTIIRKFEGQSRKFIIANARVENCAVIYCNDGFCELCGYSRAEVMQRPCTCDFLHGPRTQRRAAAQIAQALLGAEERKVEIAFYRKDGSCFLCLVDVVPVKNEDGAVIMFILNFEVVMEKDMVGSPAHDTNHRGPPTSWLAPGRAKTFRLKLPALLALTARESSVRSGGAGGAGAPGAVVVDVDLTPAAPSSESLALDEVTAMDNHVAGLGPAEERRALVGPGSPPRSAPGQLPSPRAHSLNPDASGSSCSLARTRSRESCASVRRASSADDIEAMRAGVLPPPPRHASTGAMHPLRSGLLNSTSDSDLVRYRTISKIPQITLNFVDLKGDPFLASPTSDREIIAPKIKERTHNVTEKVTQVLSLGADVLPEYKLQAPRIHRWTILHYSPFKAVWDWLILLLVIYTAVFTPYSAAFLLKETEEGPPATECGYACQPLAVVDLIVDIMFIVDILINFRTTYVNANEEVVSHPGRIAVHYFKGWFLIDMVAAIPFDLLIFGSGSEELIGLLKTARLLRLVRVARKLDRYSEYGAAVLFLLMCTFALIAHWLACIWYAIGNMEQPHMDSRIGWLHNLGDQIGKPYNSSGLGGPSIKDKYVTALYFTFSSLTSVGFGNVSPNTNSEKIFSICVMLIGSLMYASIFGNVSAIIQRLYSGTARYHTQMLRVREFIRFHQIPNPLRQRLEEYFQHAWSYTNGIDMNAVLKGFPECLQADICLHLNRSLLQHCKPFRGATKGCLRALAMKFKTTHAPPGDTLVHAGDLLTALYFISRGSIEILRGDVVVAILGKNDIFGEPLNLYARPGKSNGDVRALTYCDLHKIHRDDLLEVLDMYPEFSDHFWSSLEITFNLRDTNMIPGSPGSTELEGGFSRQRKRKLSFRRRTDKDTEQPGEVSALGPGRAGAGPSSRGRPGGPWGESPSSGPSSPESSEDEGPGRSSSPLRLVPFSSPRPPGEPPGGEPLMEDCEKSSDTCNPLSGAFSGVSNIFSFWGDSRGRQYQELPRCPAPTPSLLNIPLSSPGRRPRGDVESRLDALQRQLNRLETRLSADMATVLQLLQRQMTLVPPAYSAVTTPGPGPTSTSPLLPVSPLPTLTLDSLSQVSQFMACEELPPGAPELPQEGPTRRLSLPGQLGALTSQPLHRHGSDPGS

Compound: CN1CCC(N(Cc2ccc(F)cn2)C(=O)NCc2ccc(OCC(F)(F)F)cc2)CC1.O=C(O)C(O)C(O)C(=O)O
- Tmax [1]: 0.9 h
- MRT last at 24 h [2]: 6.3 h
- Tmax [3]: 0.81 h
- Cmax [4]: 174 nM
- Cmax [5]: 87.7 nM
- half-life [6]: 4.72 h
- AUC(0-t) at 24 h [7]: 1.22 µM·h
- MRT last at 24 h [8]: 6.03 h
- half-life [9]: 4.44 h
- AUC(0-t) at 24 h [10]: 0.683 µM·h

Compound: CN1CCC(N(Cc2ccc(F)cn2)C(=O)NCc2ccc(OCC(F)(F)F)cc2)CC1
- Ki [11]: 139 nM
- pKa [12]: 8.51
- half-life at 100 µM [13]: 1.72 h
- Activity [14]: Non-Toxic
- Ki [15]: 2 nM
- CLint scaled at 100 µM [16]: 34.1 mL/min/kg
- fraction unbound at 10 µM [17]: 0.309
- Activity [18]: Non-Toxic
- IC50 (Cytochrome P450 2C9): > 100000 nM
- Activity [19]: Non-Toxic
- Activity [20]: Non-Toxic
- fraction unbound at 10 µM [21]: 0.383
- Activity [22]: Non-Toxic
- IC50 (Cytochrome P450 3A4): > 100000 nM
- Activity [23]: Non-Toxic
- Activity [24]: Non-Toxic
- Activity [25]: Non-Toxic
- CLint scaled at 100 µM [26]: < 6.7 mL/min/kg
- fraction unbound at 10 µM [27]: 0.418
- Ki [28]: 0.2 nM
- Ct [29]: 164 nmol/kg
- Activity [30]: Non-Toxic
- IC50 (Cytochrome P450 1A2): 8500 nM
- IC50 [31]: 2.1 nM
- IC50 [32]: 1100 nM
- half-life at 100 µM [33]: > 3.1 h
- remaining at 100 µM [34]: 76.4%
- Activity [35]: Non-Toxic
- IC50 (Cytochrome P450 2C19): 62900 nM
- remaining at 100 µM [36]: 89.2%
- Ct [37]: 100 nmol/kg
- Ct [38]: 120 nmol/kg
- IC50 (Cytochrome P450 2D6): > 100000 nM
- Activity [39]: Non-Toxic
- remaining at 100 µM [40]: 66.5%
- logD [41]: 1.97
- solubility [42]: 710 µg/mL (≈ 1560 µM)
- Activity [43]: Non-Toxic
